Data published in ChEMBL document CHEMBL4359928, “Scaffold Morphing To Identify Novel DprE1 Inhibitors with Antimycobacterial Activity” (ACS Med Chem Lett, 2019).

What was measured:
[1] = test system: Mycobacterium tuberculosis; assay: Antimycobacterial activity against Mycobacterium tuberculosis H37Rv assessed as reduction in bacterial cell growth by resazurin reduction method; type: functional; settings: Mycobacterium tuberculosis, H37Rv; read-out: MIC
[2] = Inhibition of DprE1 in Mycobacterium tuberculosis
[3] = Lipophilicity, logD of compound; type: physicochemical; settings: octanol/water
[4] = Aqueous solubility of DMSO-dried solid compounds; type: physicochemical; settings: buffer
[5] = Protein binding in human plasma assessed as free fraction; type: ADME, cell-free
[6] = Permeability across apical to basolateral side in human Caco2 cells; type: ADME, cell-based; settings: Caco-2, read-out: permeability
[7] = Permeability across basolateral to apical side in human Caco2 cells; type: ADME, cell-based; settings: Caco-2, read-out: permeability
Cytochrome P450 1A2 = Cytochrome P450 1A2 (Homo sapiens, UniProt P05177); assay: Inhibition of CYP1A2 (unknown origin); type: ADME
Cytochrome P450 2C9 = Cytochrome P450 2C9 (Homo sapiens, UniProt P11712); assay: Inhibition of CYP2C9 (unknown origin); type: ADME
Cytochrome P450 2C19 = Cytochrome P450 2C19 (Homo sapiens, UniProt P33261); assay: Inhibition of CYP2C19 (unknown origin); type: ADME
Cytochrome P450 2D6 = Cytochrome P450 2D6 (Homo sapiens, UniProt P10635); assay: Inhibition of CYP2D6 (unknown origin); type: ADME
Cytochrome P450 3A4 = Cytochrome P450 3A4 (Homo sapiens, UniProt P08684); assay: Inhibition of CYP3A4 (unknown origin); type: ADME
[8] = biological target: Voltage-gated inwardly rectifying potassium channel KCNH2 (Homo sapiens, UniProt Q12809); assay: Inhibition of human ERG
Sequence of Voltage-gated inwardly rectifying potassium channel KCNH2 (Q12809 whole entry): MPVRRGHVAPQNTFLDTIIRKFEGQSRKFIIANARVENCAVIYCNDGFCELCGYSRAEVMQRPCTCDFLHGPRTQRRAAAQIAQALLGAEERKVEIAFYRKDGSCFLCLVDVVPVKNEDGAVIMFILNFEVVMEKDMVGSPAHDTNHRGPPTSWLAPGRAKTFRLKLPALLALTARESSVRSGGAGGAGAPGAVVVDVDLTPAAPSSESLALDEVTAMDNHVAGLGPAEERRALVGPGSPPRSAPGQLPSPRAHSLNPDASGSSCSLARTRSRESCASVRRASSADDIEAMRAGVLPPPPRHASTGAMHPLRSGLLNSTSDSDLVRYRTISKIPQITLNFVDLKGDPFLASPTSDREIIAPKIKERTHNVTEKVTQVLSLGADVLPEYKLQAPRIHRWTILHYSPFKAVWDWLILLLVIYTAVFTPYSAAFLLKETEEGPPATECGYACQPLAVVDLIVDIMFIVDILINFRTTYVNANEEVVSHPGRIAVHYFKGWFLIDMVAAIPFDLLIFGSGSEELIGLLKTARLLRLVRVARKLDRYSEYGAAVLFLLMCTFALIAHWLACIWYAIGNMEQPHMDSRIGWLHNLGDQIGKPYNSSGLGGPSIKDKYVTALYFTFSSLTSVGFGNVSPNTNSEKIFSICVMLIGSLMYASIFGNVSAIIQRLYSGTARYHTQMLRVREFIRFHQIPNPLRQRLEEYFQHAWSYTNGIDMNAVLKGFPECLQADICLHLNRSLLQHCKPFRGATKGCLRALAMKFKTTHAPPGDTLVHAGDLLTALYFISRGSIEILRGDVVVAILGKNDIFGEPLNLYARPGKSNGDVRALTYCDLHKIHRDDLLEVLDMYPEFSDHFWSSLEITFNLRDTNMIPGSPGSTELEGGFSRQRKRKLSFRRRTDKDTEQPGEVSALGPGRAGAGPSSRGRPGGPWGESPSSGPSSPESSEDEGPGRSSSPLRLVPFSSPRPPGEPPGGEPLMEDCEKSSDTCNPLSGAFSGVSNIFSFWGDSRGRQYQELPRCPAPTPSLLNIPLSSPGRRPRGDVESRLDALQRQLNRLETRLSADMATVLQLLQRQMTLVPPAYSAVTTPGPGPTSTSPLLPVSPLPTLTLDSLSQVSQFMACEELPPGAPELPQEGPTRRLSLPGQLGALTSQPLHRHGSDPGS

Sequence of Cytochrome P450 1A2 (P05177 whole entry): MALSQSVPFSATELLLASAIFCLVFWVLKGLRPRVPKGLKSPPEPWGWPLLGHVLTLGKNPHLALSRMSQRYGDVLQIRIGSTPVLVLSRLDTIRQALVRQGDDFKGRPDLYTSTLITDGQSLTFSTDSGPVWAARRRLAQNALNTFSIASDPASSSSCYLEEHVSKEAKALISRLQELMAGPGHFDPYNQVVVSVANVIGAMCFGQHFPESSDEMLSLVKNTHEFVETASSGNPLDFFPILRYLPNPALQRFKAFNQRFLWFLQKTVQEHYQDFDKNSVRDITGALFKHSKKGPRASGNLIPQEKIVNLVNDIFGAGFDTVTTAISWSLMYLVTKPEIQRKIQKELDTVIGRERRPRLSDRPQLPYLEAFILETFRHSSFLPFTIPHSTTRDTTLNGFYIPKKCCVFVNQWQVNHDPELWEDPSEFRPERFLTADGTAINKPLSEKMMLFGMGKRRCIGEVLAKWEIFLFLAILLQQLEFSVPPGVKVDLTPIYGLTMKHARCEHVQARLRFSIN
Sequence of Cytochrome P450 2D6 (P10635 whole entry): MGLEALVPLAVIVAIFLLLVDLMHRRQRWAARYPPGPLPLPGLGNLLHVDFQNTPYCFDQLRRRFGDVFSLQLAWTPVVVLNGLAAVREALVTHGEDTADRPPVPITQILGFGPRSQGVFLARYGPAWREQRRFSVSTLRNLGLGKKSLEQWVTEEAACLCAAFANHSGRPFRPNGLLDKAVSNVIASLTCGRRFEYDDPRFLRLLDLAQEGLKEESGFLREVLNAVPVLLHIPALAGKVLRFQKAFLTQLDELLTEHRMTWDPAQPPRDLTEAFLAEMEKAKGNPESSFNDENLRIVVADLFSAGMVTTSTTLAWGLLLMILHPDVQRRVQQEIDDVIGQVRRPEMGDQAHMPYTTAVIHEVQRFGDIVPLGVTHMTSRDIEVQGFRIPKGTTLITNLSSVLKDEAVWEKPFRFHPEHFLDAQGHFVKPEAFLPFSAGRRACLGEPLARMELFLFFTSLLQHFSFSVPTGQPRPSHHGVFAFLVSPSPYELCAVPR
Sequence of Cytochrome P450 3A4 (P08684 whole entry): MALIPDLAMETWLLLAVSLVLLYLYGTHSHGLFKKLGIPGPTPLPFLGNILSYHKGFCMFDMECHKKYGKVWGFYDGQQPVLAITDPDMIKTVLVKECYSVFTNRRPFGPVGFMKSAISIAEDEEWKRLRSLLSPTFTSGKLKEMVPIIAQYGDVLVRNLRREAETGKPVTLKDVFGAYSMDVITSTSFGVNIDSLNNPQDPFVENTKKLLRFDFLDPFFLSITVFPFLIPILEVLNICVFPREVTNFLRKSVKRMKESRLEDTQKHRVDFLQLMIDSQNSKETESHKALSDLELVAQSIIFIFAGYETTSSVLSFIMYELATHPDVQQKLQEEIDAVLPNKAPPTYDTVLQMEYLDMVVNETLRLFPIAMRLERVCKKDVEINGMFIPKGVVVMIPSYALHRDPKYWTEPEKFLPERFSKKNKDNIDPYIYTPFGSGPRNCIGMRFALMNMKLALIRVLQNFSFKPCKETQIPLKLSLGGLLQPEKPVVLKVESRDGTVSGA
Sequence of Cytochrome P450 2C19 (P33261 whole entry): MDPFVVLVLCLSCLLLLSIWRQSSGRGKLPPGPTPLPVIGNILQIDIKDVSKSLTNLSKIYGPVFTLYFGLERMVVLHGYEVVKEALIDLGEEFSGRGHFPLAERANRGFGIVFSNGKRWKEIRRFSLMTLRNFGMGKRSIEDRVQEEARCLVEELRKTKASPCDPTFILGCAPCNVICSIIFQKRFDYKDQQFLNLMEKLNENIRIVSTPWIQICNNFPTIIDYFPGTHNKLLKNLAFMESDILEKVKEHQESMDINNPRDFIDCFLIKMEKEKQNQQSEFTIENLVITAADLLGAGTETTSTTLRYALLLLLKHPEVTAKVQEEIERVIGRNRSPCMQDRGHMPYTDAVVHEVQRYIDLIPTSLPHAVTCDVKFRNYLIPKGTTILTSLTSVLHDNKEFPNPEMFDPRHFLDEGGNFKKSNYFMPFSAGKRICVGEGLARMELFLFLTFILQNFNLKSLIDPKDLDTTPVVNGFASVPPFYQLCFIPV
Sequence of Cytochrome P450 2C9 (P11712 whole entry): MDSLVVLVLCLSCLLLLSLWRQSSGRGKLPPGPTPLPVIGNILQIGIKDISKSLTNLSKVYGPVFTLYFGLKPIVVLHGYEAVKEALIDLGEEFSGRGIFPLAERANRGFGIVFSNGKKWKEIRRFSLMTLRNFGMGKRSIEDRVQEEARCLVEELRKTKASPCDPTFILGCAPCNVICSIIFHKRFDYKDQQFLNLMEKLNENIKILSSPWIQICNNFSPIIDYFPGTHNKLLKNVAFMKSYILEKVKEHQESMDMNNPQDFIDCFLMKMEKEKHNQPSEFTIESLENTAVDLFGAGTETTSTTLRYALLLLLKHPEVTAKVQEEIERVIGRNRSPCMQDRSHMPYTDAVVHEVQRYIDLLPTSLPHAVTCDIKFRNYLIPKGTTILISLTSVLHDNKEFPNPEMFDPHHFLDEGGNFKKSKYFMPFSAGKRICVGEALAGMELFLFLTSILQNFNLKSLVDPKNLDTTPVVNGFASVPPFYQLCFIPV

Compound | MIC [1] [µM] | IC50 [2] [nM] | further results
COc1cc(C(=O)NCCF)c2ncn(Cc3ncnc(N(C)C)c3C)c2c1 | < 0.39 | 16 | logD [3]: 2 to 2.1; solubility [4]: > 1000 µM; fraction unbound [5]: 0.31; Papp A→B [6]: 26 ×10⁻⁶ cm/s; Papp B→A [7]: 22 ×10⁻⁶ cm/s; IC50 (Cytochrome P450 1A2): > 50000 nM; IC50 (Cytochrome P450 2C9): > 50000 nM; IC50 (Cytochrome P450 2C19): > 50000 nM; IC50 (Cytochrome P450 2D6): > 50000 nM; IC50 (Cytochrome P450 3A4): > 50000 nM; IC50 [8]: > 33000 nM
COc1cc(C(=O)NCCF)c2ncn(Cc3ncnc(OC)c3C)c2c1 | < 0.39 | 5 | 
Cc1cc(C(=O)NCCF)c2ncn(Cc3ncnc(N(C)C)c3C)c2c1 | < 0.39 | 9 | 
Cc1cc(C(=O)NCC(F)F)c2ncn(Cc3ncnc(N(C)C)c3C)c2c1 | < 0.39 | 4 | 
COc1cc(C(=O)NCC(F)F)c2ncn(Cc3ncnc(OC(F)F)c3C)c2c1 | < 0.39 | 5 | 
COc1cc(C(=O)NCC(F)F)c2ncn(Cc3ncnc(N(C)C)c3C)c2c1 | < 0.39 | 9 | 
